The CheMixHub viscosity set
± gives the uncertainty stated by the source.

Assay: xn = mol fraction of the nth substance listed

COc1ccccc1 + CO
Conditions	viscosity [mPa·s]
298.15 K, 101 kPa, x1 = 0.0501	0.586 ± 0.0059
298.15 K, 101 kPa, x1 = 0.1098	0.623 ± 0.0063
298.15 K, 101 kPa, x1 = 0.1821	0.662 ± 0.0066
298.15 K, 101 kPa, x1 = 0.2706	0.707 ± 0.0071
298.15 K, 101 kPa, x1 = 0.3822	0.756 ± 0.0076
298.15 K, 101 kPa, x1 = 0.5271	0.809 ± 0.0081
298.15 K, 101 kPa, x1 = 0.7214	0.886 ± 0.0089
298.15 K, 101.33 kPa, x1 = 0.1024	0.6111 ± 0.016
298.15 K, 101.33 kPa, x1 = 0.2039	0.67 ± 0.018
298.15 K, 101.33 kPa, x1 = 0.2982	0.7131 ± 0.019
298.15 K, 101.33 kPa, x1 = 0.4027	0.7591 ± 0.02
298.15 K, 101.33 kPa, x1 = 0.4998	0.8009 ± 0.021
298.15 K, 101.33 kPa, x1 = 0.5991	0.8271 ± 0.022
298.15 K, 101.33 kPa, x1 = 0.7068	0.8651 ± 0.023
298.15 K, 101.33 kPa, x1 = 0.8061	0.8975 ± 0.024
298.15 K, 101.33 kPa, x1 = 0.9023	0.9373 ± 0.025
303 K, 101.3 kPa, x1 = 0.0499	0.5675 ± 0.079
303 K, 101.3 kPa, x1 = 0.1091	0.6038 ± 0.083
303 K, 101.3 kPa, x1 = 0.2686	0.6883 ± 0.093
303 K, 101.3 kPa, x1 = 0.5242	0.7935 ± 0.1
303 K, 101.3 kPa, x1 = 0.7199	0.8751 ± 0.11
303.15 K, 101.33 kPa, x1 = 0.1024	0.574 ± 0.015
303.15 K, 101.33 kPa, x1 = 0.2039	0.6257 ± 0.017
303.15 K, 101.33 kPa, x1 = 0.2982	0.6672 ± 0.018
303.15 K, 101.33 kPa, x1 = 0.4027	0.7035 ± 0.019
303.15 K, 101.33 kPa, x1 = 0.4998	0.7455 ± 0.02
303.15 K, 101.33 kPa, x1 = 0.5991	0.7718 ± 0.02
303.15 K, 101.33 kPa, x1 = 0.7068	0.8059 ± 0.021
303.15 K, 101.33 kPa, x1 = 0.8061	0.8374 ± 0.022
303.15 K, 101.33 kPa, x1 = 0.9023	0.8779 ± 0.023
308.15 K, 101.33 kPa, x1 = 0.1024	0.5506 ± 0.015
308.15 K, 101.33 kPa, x1 = 0.2039	0.5983 ± 0.016
308.15 K, 101.33 kPa, x1 = 0.2982	0.638 ± 0.017
308.15 K, 101.33 kPa, x1 = 0.4027	0.6731 ± 0.018
308.15 K, 101.33 kPa, x1 = 0.4998	0.7065 ± 0.019
308.15 K, 101.33 kPa, x1 = 0.5991	0.735 ± 0.019
308.15 K, 101.33 kPa, x1 = 0.7068	0.7683 ± 0.02
308.15 K, 101.33 kPa, x1 = 0.8061	0.7978 ± 0.021
308.15 K, 101.33 kPa, x1 = 0.9023	0.8373 ± 0.022
313.15 K, 101.33 kPa, x1 = 0.1024	0.4934 ± 0.013
313.15 K, 101.33 kPa, x1 = 0.2039	0.5372 ± 0.014
313.15 K, 101.33 kPa, x1 = 0.2982	0.5706 ± 0.015
313.15 K, 101.33 kPa, x1 = 0.4027	0.6023 ± 0.016
313.15 K, 101.33 kPa, x1 = 0.4998	0.6345 ± 0.017
313.15 K, 101.33 kPa, x1 = 0.5991	0.6601 ± 0.017
313.15 K, 101.33 kPa, x1 = 0.7068	0.6865 ± 0.018
313.15 K, 101.33 kPa, x1 = 0.8061	0.7174 ± 0.019
313.15 K, 101.33 kPa, x1 = 0.9023	0.751 ± 0.02

CC(=O)Oc1ccccc1C(=O)O + CC(C)O
viscosity [mPa·s], 101 kPa
Conditions	x1 = 0.00057	x1 = 0.000763	x1 = 0.000955	x1 = 0.00115	x1 = 0.00134	x1 = 0.00153	x1 = 0.00191
293.15 K	2.382 ± 0.054	2.382 ± 0.054	2.383 ± 0.054	2.384 ± 0.054	2.385 ± 0.054	2.386 ± 0.054	2.389 ± 0.054
298.15 K	2.045 ± 0.047	2.045 ± 0.047	2.046 ± 0.047	2.046 ± 0.047	2.047 ± 0.047	2.048 ± 0.047	2.049 ± 0.047
303.15 K	1.763 ± 0.041	1.764 ± 0.041	1.764 ± 0.041	1.765 ± 0.041	1.766 ± 0.041	1.767 ± 0.041	1.768 ± 0.041
308.15 K	1.524 ± 0.036	1.524 ± 0.036	1.525 ± 0.036	1.525 ± 0.036	1.525 ± 0.036	1.526 ± 0.036	1.526 ± 0.036
310.15 K	1.437 ± 0.034	1.438 ± 0.034	1.438 ± 0.034	1.438 ± 0.034	1.439 ± 0.034	1.439 ± 0.034	1.44 ± 0.034
313.15 K	1.392 ± 0.033	1.392 ± 0.033	1.393 ± 0.033	1.393 ± 0.033	1.394 ± 0.033	1.394 ± 0.033	1.395 ± 0.033

CCCc1ccccc1 + C1CCCCC1
303.15 K, 101 kPa
Conditions	viscosity [mPa·s]
x2 = 0.1018	0.7449 ± 0.0048
x2 = 0.2046	0.7318 ± 0.0048
x2 = 0.3024	0.7218 ± 0.0047
x2 = 0.3975	0.7149 ± 0.0047
x2 = 0.5018	0.7144 ± 0.0047
x2 = 0.6007	0.716 ± 0.0047
x2 = 0.6984	0.7272 ± 0.0048
x2 = 0.7974	0.749 ± 0.0049
x2 = 0.9039	0.7828 ± 0.005

CC1COC(=O)O1 (stereo unspecified) + CC(C)O
viscosity [mPa·s], 101 kPa
Conditions	x1 = 0.0614	x1 = 0.1283	x1 = 0.2015	x1 = 0.2818	x1 = 0.3706	x1 = 0.469	x1 = 0.5787	x1 = 0.7019	x1 = 0.8412
298.15 K	1.84 ± 0.02	1.74 ± 0.02	1.68 ± 0.02	1.64 ± 0.02	1.64 ± 0.02	1.65 ± 0.02	1.7 ± 0.02	1.8 ± 0.02	2.04 ± 0.02
303.15 K	1.6 ± 0.02	1.53 ± 0.01	1.46 ± 0.01	1.44 ± 0.01	1.45 ± 0.01	1.48 ± 0.01	1.54 ± 0.02	1.65 ± 0.02	1.85 ± 0.02
308.15 K	1.44 ± 0.01	1.37 ± 0.01	1.31 ± 0.01	1.29 ± 0.01	1.29 ± 0.01	1.32 ± 0.01	1.39 ± 0.01	1.49 ± 0.01	1.68 ± 0.02
